Assay results from publication PMC10799935, “Discovery of a peripheral 5HT2A antagonist as a clinical candidate for metabolic dysfunction-associated steatohepatitis” (Nature Communications, 2024).
Several values for one entry are separate records, joined by “and”; a condition that tells them apart may be missing. Equal values may be shown once.

Tests used:
α-SMA = experiment: CDAHFD mice: liver α-SMA RNA expression (qRT-PCR); assay type: in vivo, mouse; settings: for Relative liver α-SMA expressions in mice, measured using quantitative RT-PCR: individual mice and Average
Description: C57BL/6 J male mice were purchased from the Japan SLC. Inc (Hamamatsu, Japan). Mice (5 weeks old) were fed Teklad Certitied Irradiated Global 18% protein rodent diet purchased from Dooyeol Biotech Co. Ltd (Seoul, South Korea) during the acclimation period. The liver fibrosis/inflammation-induced groups were CDAHFD-fed (A06071302, Research diet). […]. […] All animal experiments complied with the relevant ethical regulations.
The frozen liver tissue was homogenized and put into QiAzol (Qiagen, Hilden) to isolate RNA, and 4 μg of RNA was synthesized into cDNA using the RevertAid First Strand cDNA synthesis kit (Thermo Fischer, Waltham). The expressions of mouse collagen I (Forward: 5’-TGTGTTCCCTACTCAGCCGTG-3’. Reverse: 5’-CATCGGTCATGCTCTCTCCAA-3’), mouse α-SMA (Forward:5’-TCCTGACGCTGAAGTATCCGAT-3’, Reverse: 5’-GGCCACACAAAGCTCGTTATAG-3’) and mouse 36B4 (Forward: 5’-ACCTCCTTCTTCCAGGCTTT-3’, Reverse: 5’-CTCCAGTCTTTATCAGCTGC-3’) as house-keeping gene were measured using ViiA 7 Real-time PCR system (Thermo Fischer scientific).

[1] = system: CDAHFD-fed C57BL/6 J mice; experiment: CDAHFD mice: food intake; assay type: in vivo, mouse; settings: amongst CDAHFD-fed groups, 12 weeks
Description: C57BL/6 J male mice were purchased from the Japan SLC. Inc (Hamamatsu, Japan). Mice (5 weeks old) were fed Teklad Certitied Irradiated Global 18% protein rodent diet purchased from Dooyeol Biotech Co. Ltd (Seoul, South Korea) during the acclimation period. The liver fibrosis/inflammation-induced groups were CDAHFD-fed (A06071302, Research diet). […] All animal experiments complied with the relevant ethical regulations.
Supplementary Figure 4. Food intake. Food intake of vehicle and CDAHFD-fed mice, two-way
ANOVA with the Holm-Sidak post hoc test. The data are presented as mean ± SD (n = 2 cages per
(1 picture or pasted object on this page, not shown here)

in vitro [2] = settings: African green monkey
HFD-fed C57BL/6J mice = experiment: DIO mice: liver histology (H&E), NAFLD activity score (steatosis, inflammation, ballooning); assay type: in vivo, mouse; design: key to Steatosis (NAFLD Activity Score), individual animals / Steatosis score, group mean: steatosis score 0-3 (0 <5% to 3 >66% fat accumulation); key to Total NAFLD Activity Score, difference between medians: Actual (treated vs. Vehicle): total NAS, 0-8 scale (sum of steatosis, inflammation, ballooning); settings: DIO mice; for Lobular inflammation score, Mean Diff. (Vehicle vs. treated) / Steatosis score, Mean Diff. (Vehicle vs. treated) / Total NAFLD Activity Score, Mean Diff. (Vehicle vs. treated): Dunnett's multiple comparisons test; for Lobular inflammation score, group mean / Steatosis score, group mean: PO
Description: Epididymal, inguinal, and liver were harvested, fixed in 10% (w/v) neutral buffered formalin solution (Sigma-Aldrich), and embedded in paraffin. Five-micron-thick tissue sections were deparaffinized, rehydrated, and stained with hematoxylin and eosin (H&E)[10]. The total NAFLD activity score (NAS) is a widely used measure of grading for steatosis, lobular inflammation, and ballooning. The total NAS ranges from 0-8 and is the sum of unweighted scores for steatosis (0: <5%, 1: 5 ~ 33%, 2: 33 ~ 66%, 3: >66% fat accumulation in the liver), lobular inflammation (0: no foci inflammation in x200 field, 1: <2 foci inflammation, 2: 2 ~ 4 foci inflammation, 3: >4 foci inflammation), and hepatocellular ballooning (0: none, 1: few ballooning cells, 2: prominent ballooning cells). MASH was diagnosed when NAS was >5, while non-MASH was diagnosed when NAS was <4. According to the MASH CRN scoring system, a certified pathologist determined the NAS[39]. The histological scoring was performed blindly, without knowledge of any other information.

in vitro [3] = settings: human

Cc1nc2n(c(=O)c1CCN1CCC(=C3c4ccc(Cl)cc4CCc4cccnc43)CC1)CCCC2O (stereo not shown) [Compound 11c]
Relative liver α-SMA expressions in mice, measured using quantitative RT-PCR (α-SMA; CDAHFD+11c 5 mpk): 2.564 and 0.488 and 1.651 and 1.165 and 1.498
Relative liver α-SMA expressions in mice, measured using quantitative RT-PCR (α-SMA; CDAHFD+11c 5 mpk, mean): 1.473
Relative liver α-SMA expressions in mice, measured using quantitative RT-PCR (α-SMA; CDAHFD+11c 10mpk): 2.015 and 1.845 and 1.808 and 2.373 and 1.519
Relative liver α-SMA expressions in mice, measured using quantitative RT-PCR (α-SMA; CDAHFD+11c 10mpk, mean): 1.912
mRNA expression of α-SMA in liver tissue (α-SMA; CDAHFD-fed 11c vs CDAHFD-fed vehicle group): significantly decreased
food intake [1]: no significant difference
IC50 (in vitro [2]): > 100 µM
steatosis, lobular inflammation, and hepatocyte ballooning in liver tissue (H&E) (HFD-fed C57BL/6J mice; 5 and 10 mpk, dose-dependent manner): markedly reduced
Hepatocyte ballooning score, difference between medians: Actual (treated vs. Vehicle) (HFD-fed C57BL/6J mice; 5mpk): 0
Lobular inflammation score, difference between medians: Actual (treated vs. Vehicle) (HFD-fed C57BL/6J mice; 5mpk): -0.5
Steatosis score, difference between medians: Actual (treated vs. Vehicle) (HFD-fed C57BL/6J mice; 5mpk): 0
Total NAFLD Activity Score, difference between medians: Actual (treated vs. Vehicle) (HFD-fed C57BL/6J mice; 5mpk): -1.5
Lobular inflammation score, Mean Diff. (Vehicle vs. treated) (HFD-fed C57BL/6J mice; 5mpk): 0.3333
Steatosis score, Mean Diff. (Vehicle vs. treated) (HFD-fed C57BL/6J mice; 5mpk): 0
Total NAFLD Activity Score, Mean Diff. (Vehicle vs. treated) (HFD-fed C57BL/6J mice; 5mpk): 1.071
Lobular inflammation score, group median (HFD-fed C57BL/6J mice; 5mpk, Mann-Whitney analysis): 1.500, n=6
Steatosis score, group median (HFD-fed C57BL/6J mice; 5mpk, Mann-Whitney analysis): 2.000, n=6
Total NAFLD Activity Score, group median (HFD-fed C57BL/6J mice; 5mpk, Mann-Whitney analysis): 5.000, n=7
Hepatocyte ballooning score, difference between medians: Actual (treated vs. Vehicle) (HFD-fed C57BL/6J mice; 10mpk): -1
Lobular inflammation score, difference between medians: Actual (treated vs. Vehicle) (HFD-fed C57BL/6J mice; 10mpk): -1
Steatosis score, difference between medians: Actual (treated vs. Vehicle) (HFD-fed C57BL/6J mice; 10mpk): -1.5
Total NAFLD Activity Score, difference between medians: Actual (treated vs. Vehicle) (HFD-fed C57BL/6J mice; 10mpk): -3.5
Lobular inflammation score, Mean Diff. (Vehicle vs. treated) (HFD-fed C57BL/6J mice; 10mpk): 0.8333
Steatosis score, Mean Diff. (Vehicle vs. treated) (HFD-fed C57BL/6J mice; 10mpk): 1.5
Total NAFLD Activity Score, Mean Diff. (Vehicle vs. treated) (HFD-fed C57BL/6J mice; 10mpk): 3.667
Hepatocyte ballooning score, group median (HFD-fed C57BL/6J mice; 10mpk, Mann-Whitney analysis): 1.000, n=6
Lobular inflammation score, group median (HFD-fed C57BL/6J mice; 10mpk, Mann-Whitney analysis): 1.000, n=6
Steatosis score, group median (HFD-fed C57BL/6J mice; 10mpk, Mann-Whitney analysis): 0.5000, n=6
Total NAFLD Activity Score, group median (HFD-fed C57BL/6J mice; 10mpk, Mann-Whitney analysis): 3.000, n=6
Lobular inflammation score, group mean (HFD-fed C57BL/6J mice; 5mpk): 1.5
Steatosis score, group mean (HFD-fed C57BL/6J mice; 5mpk, 5 mg/kg): 2
Steatosis score, group mean (HFD-fed C57BL/6J mice; 10mpk): 0.5
Lobular inflammation score, group mean (HFD-fed C57BL/6J mice; 10mpk, 10 mg/kg): 1
IC50 (in vitro [3]): > 100 µM
